Reference: article PMC7947296, “p-Terphenyls From Aspergillus sp. GZWMJZ-055: Identification, Derivation, Antioxidant and α-Glycosidase Inhibitory Activities” (Frontiers in Microbiology, 2021)
Values joined by “and” are separate entries in the source; they are usually repeats but may differ in a detail not shown here. Identical values can stand only once.

Key:
[1] = DPPH radical-scavenging assay; details: DPPH 0.15 mM in MeOH, 30-min incubation in the dark at rt, absorbance 517 nm
Protocol: The anti-oxidative activity of compounds was also evaluated by 2,2-diphenyl-1-picrylhydrazyl (DPPH) radical-scavenging assay ([Wang et al., 2007]). The experiment was divided into the following five groups, blank (methanol, MeOH), sample (mix compound and DPPH solution), background (pure compound solution), negative (pure DPPH solution), and positive [mix vitamin C (VC) and DPPH solution] controls. DPPH (0.15 mM), compounds (1–100 μM), and VC (1–100 μM) that was regarded as a compound sample in the following procedures all were dissolved in MeOH. Each 160 μL of MeOH was placed in negative control and blank groups, while each 160 μL of testing compounds or VC was placed in sample and background groups. Then, MeOH (each 40 μL) was, respectively, added to blank and background groups, while 40 μL of DPPH was, respectively, added to negative, positive, and sample controls. After 30-min incubation in the dark at rt, the decrease in DPPH radical concentration was monitored by measuring the absorbance at λ 517 nm with a microplate reader (Multiskan Spectrum, Thermo Scientific Varioskan LUX). The DPPH radical-scavenging rate was calculated as:
Scavenging rate (%)=[(Anegative-Ablank)-(Asample-Abackground)]/(Anegative-Ablank)×100%.

[2] = Oxygen radical absorbance capacity (ORAC) assay; details: trolox equivalents; tested at 6.25 μM (compounds 4–7), 12.5 μM (1–3, 8–16), 25.0 μM (17–25); PBS pH 7.4, 37°C
Protocol: The anti-oxidative activity of compounds was evaluated by ORAC assay ([Huang et al., 2002]) that was carried out mainly by using 2,2′-azobis(2-amidinopropane) dihydrochloride (AAPH, 153.0 μM), fluorescein (FL, 81.6 nM), testing compounds, and trolox as a positive control, all of which were dissolved in phosphate buffer solution (PBS, 75 mM, pH 7.4). The concentrations were 6.25 μM for compounds 4–7 and trolox, 12.5 μM for compounds 1–3, 8–16 and trolox, and 25.0 μM for compounds 17–25 and trolox, respectively (Supplementary Figure 36). In short, each 25 μL of testing compounds, blank (PBS), negative (PBS) and trolox, and 150 μL of FL were added in each well and incubated at 37°C for 10 min. Each 25 μL of AAPH was then added to the testing compounds, blank and trolox groups, and 25 μL of PBS was added to the negative group. Fluorescence intensity of each well was measured one time every 1 min for 90 cycles using a Fluoroskan Ascent FL plate-reader (Thermo Scientific Varioskan LUX) at excitation of λ 485 nm and emission of λ 530 nm. The relative fluorescence intensity f was equaled to the ratio of the absolute fluorescence reading to the initial fluorescence reading, and the net area under curve (AUC) was obtained by subtracting the AUC of the blank from that of the compound. The AUC was calculated as 0.5 + f1 +… fi +… + f89 + 0.5 × f90, in which fi means the ratio of fluorescence reading at time i to the initial fluorescence reading. The final ORAC values were calculated as micromole of trolox equivalents per micromole of the compound (μmole TE/μmole) by using a regression equation between the trolox concentration and the net area under the FL decay curve. That is, the relative ORAC value = (AUCcompound – AUCblank)/(AUCtrolox – AUCblank).

[3] = biological target: α-glucosidase from Saccharomyces cerevisiae (Saccharomyces cerevisiae, UniProt P53341); assay: biochemical;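 further: 15 min preincubation at 37 °C, then 30 min with PNPG substrate at 37 °C, inhibition computed from absorbance versus drug-free blank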
Chain of α-glucosidase from Saccharomyces cerevisiae (P53341 whole entry): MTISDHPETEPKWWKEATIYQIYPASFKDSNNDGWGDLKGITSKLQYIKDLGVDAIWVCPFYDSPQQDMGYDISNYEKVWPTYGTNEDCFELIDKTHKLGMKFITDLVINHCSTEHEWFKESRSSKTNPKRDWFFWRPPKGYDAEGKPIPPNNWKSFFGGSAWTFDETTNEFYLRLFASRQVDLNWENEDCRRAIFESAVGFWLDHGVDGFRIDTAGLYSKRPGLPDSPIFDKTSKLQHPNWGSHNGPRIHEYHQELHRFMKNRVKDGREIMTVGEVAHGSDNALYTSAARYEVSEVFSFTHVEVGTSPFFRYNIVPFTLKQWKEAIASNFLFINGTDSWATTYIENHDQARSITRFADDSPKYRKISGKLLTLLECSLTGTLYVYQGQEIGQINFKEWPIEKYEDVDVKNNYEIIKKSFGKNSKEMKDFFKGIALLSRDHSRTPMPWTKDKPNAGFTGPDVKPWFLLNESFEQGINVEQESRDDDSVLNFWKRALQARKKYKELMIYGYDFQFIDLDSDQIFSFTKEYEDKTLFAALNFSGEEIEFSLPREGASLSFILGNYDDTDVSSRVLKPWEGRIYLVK
Protocol: After incubation for 15 min at 37°C, 20 μL of PNPG solution was added to each well of testing groups and further incubated at 37°C for 30 min. Finally, 80 μL of Na2CO3 solution was added to each well to stop the reaction and the absorbance was measured by a microplate reader (Multiskan Spectrum, Thermo Scientific Varioskan LUX) at λ 405 nm.

[4] = Cytotoxic effects on caco-2 cells by CTG assay; assay type: cell-based; details: human, 72 h incubation, read-out: inhibitory rate (cytotoxicity to caco-2 cells)
Protocol: The cytotoxic effects on the coca-2 cells were evaluated by the CTG assay ([Elisia and Kitts, 2008]; [Wang et al., 2019]). Briefly, coca-2 cells were seeded in 96-well plates at a density of 2 × 10^3 cells/well and treated with the final concentration of 1.0 μM of the compounds. After 72 h incubation, 100 μL of CTG solution (Promega) was added into each well. The luminescence value was tested by using a microplate reader (BioTek Synergy H1) after staying at rt for 10 min.

SMILES | IC50 [1] | IC50 [3] | ORAC (μMole TE/μMole) [2] | inhibition at 72 h, 1 µM [4]
COc1cc(-c2ccccc2)c(OC)c(OC)c1-c1ccc(O)cc1 [Compound 3, 4″-deoxy-2′-methoxyterphenyllin] | > 100 µM | > 500 µM | 2.1 ± 0.5 μMole TE/μMole | –
COc1cc(-c2ccc(OC(C)=O)cc2)c(OC)c(OC(C)=O)c1-c1ccc(OC(C)=O)cc1 [Compound 23] | > 100 µM | > 500 µM | 0.1 ± 0.01 μMole TE/μMole | –
COc1cc(-c2ccc(O)cc2)c(OC)c(OC)c1-c1ccc(O)cc1 [Compound 10, 3′-O-methylterphenyllin] | > 100 µM | > 500 µM | 0.5 ± 0.03 μMole TE/μMole | –
COc1cc(-c2ccccc2)c(OC)c(O)c1-c1ccc(O)c(CC=C(C)C)c1 [Compound 11, 4″-deoxyprenylterphenyllin] | 1.6 ± 0.01 µM | 34.4 ± 1.1 µM | 1.2 ± 0.5 μMole TE/μMole | –
COc1cc(-c2c(OC)cc(-c3ccc(O)cc3)c(OC)c2O)ccc1OCC=C(C)C [Compound 13, 3-methoxyterprenin] | > 100 µM | 152 ± 9.6 µM | 0.4 ± 0.07 μMole TE/μMole | –
COc1cc(-c2ccc(OC(C)=O)c(OC(C)=O)c2)c(OC)c(OC(C)=O)c1-c1ccc(OC(C)=O)c(OC(C)=O)c1 [Compound 25] | 11 ± 0.1 µM | > 500 µM | 1.7 ± 0.07 μMole TE/μMole | –
COc1cc(-c2ccc(O)c(CC=C(C)C)c2)c(OC)c(O)c1-c1ccc(O)c(O)c1 [Compound 12, prenylterphenyllin A] | 1.6 ± 0.02 µM | 64.4 ± 1.2 µM | 1.4 ± 0.01 μMole TE/μMole | –
Oc1ccc(-c2cc(O)c(-c3ccc(O)c(O)c3)c(O)c2O)cc1 [Compound 18] | 3.7 ± 0.07 µM | 25 ± 0.8 µM | 3.7 ± 0.1 μMole TE/μMole | –
Oc1ccc(-c2cc(O)c(-c3ccc(O)c(O)c3)c(O)c2O)cc1O [Compound 19] | 1.8 ± 0.04 µM | 19.4 ± 0.1 µM | 2.6 ± 0.1 μMole TE/μMole | –
COc1cc(-c2ccc(O)cc2)c(OC)c(O)c1-c1ccccc1 [Compound 2, 4-deoxyterphenyllin] | > 100 µM | 239 ± 5.9 µM | 1.2 ± 0.09 μMole TE/μMole | –
COc1cc(-c2ccccc2)c(OC)c(O)c1-c1ccc(O)c(O)c1 [Compound 9, 4″-deoxy-3-hydroxyterphenyllin] | 1.9 ± 0.04 µM | 464 ± 23.6 µM | 0.5 ± 0.06 μMole TE/μMole | –
O=C1O[C@H]([C@@H](O)CO)C(O)=C1O [VC, vitamin C, reference compound] | 2.8 ± 0.03 µM | – | – | –
COc1cc(-c2ccc(O)c(O)c2)c(OC)c(O)c1-c1ccc(O)c(O)c1 [Compound 7, 3,3″-dihydroxyterphyllin] | 1.1 ± 0.03 µM | 18.3 ± 0.9 µM | 4.5 μMole TE/μMole and 4.5 ± 0.4 μMole TE/μMole | 0.5%
COc1cc(-c2ccc(O)cc2)c(OC)c(O)c1-c1ccc(O)c(O)c1 [Compound 6, 3-hydroxyterphyllin] | 1.4 ± 0.01 µM | 10.9 ± 1.3 µM | 5.7 μMole TE/μMole and 5.7 ± 0.3 μMole TE/μMole | 0.2%

The next lines start with results.

IC50 [1] | IC50 [3] | SMILES | ORAC (μMole TE/μMole) [2] | inhibition at 72 h, 1 µM [4]
1.7 ± 0.02 µM | 10.1 ± 0.1 µM | O=C1C=C(c2ccc(O)c(O)c2)C(=O)C(O)=C1c1ccc(O)c(O)c1 [Compound 22] | 2.8 ± 0.3 μMole TE/μMole | –
10.9 ± 0.3 µM | 2.8 ± 0.2 µM | COc1cc(-c2ccc(O)cc2)c(OC)c(O)c1-c1ccc(O)cc1 [Compound 5, terphenyllin] | 6.0 μMole TE/μMole and 6.0 ± 0.09 μMole TE/μMole | 0.4%
3.6 ± 0.06 µM | 13.1 ± 0.2 µM | COc1c(-c2ccc(O)cc2)cc(OC)c2c1oc1cc(O)c(O)cc12 [Compound 15, candidusin A] | 2.1 ± 0.06 μMole TE/μMole | 20.5%
4 ± 0.2 µM | 128 ± 2.3 µM | COc1c(-c2ccccc2)cc(OC)c2c1oc1cc(O)c(O)cc12 [Compound 14, 4″-deoxycandidusin A] | 0.4 ± 0.06 μMole TE/μMole | –
37.8 ± 0.1 µM | > 500 µM | COc1cc(-c2ccc(OC(C)=O)cc2)c(OC)c(OC(C)=O)c1-c1ccc(OC(C)=O)c(OC(C)=O)c1 [Compound 24] | 0.8 ± 0.07 μMole TE/μMole | –
> 100 µM | > 500 µM | COc1cc(-c2c(OC)cc(-c3ccccc3)c(OC)c2O)ccc1OCC=C(C)C [Compound 1, 3-O-methyl-4″-deoxyterprenin] | 1.0 ± 0.04 μMole TE/μMole | –
1.6 ± 0.04 µM | 4 ± 0.08 µM | O=C1C=C(c2ccc(O)cc2)C(=O)C(O)=C1c1ccc(O)c(O)c1 [Compound 21] | 3.9 ± 0.1 μMole TE/μMole | 1.2%
1.7 ± 0.02 µM | 5.9 ± 0.6 µM | COc1cc(-c2ccc(O)cc2)c(O)c(O)c1-c1ccc(O)cc1 [Compound 4, 5′-methoxy-[1,1′:4′,1″-terphenyl]-2′,3′,4,4″-tetraol] | 6.8 μMole TE/μMole and 6.8 ± 0.05 μMole TE/μMole | –
5.3 ± 0.06 µM | 25.1 ± 0.7 µM | Oc1ccc(-c2cc(O)c(-c3ccc(O)cc3)c(O)c2O)cc1 [Compound 17] | 4.8 μMole TE/μMole and 4.8 ± 0.3 μMole TE/μMole | –
3.2 ± 0.1 µM | 7.9 ± 0.3 µM | COc1c(-c2ccc(O)c(O)c2)cc(OC)c2c1oc1cc(O)c(O)cc12 [Compound 16, candidusin B] | 2.0 ± 0.06 μMole TE/μMole | 2.7%
57.8 ± 0.8 µM | 130 ± 3.5 µM | COc1cc(-c2ccccc2)c(OC)c(O)c1-c1ccc(O)cc1 [Compound 8, 4″-deoxyterphenyllin] | 0.5 ± 0.01 μMole TE/μMole | –
5.9 ± 0.08 µM | 8.9 ± 0.4 µM | O=C1C=C(c2ccc(O)cc2)C(=O)C(O)=C1c1ccc(O)cc1 [Compound 20] | 6.1 μMole TE/μMole and 6.1 ± 0.2 μMole TE/μMole | 0.4%
